Measured values as given in patent publication US9499554B2, “Anti-influenza compositions and methods” (priority 2013, dated 2016).
Values after ≈ are worked out from the molar mass of the structure shown.

System: A/NJ/15/2007 (H1N1-H274Y)
Format: cell-based, Influenza A

Nc1ncnc2c([C@@H]3N[C@H](CO)[C@@H](O)[C@H]3O)c[nH]c12 [compound 1, (2S,3S,4R,5R)-2-(4-Amino-5H-pyrrolo[3,2-d]pyrimidin-7-yl)-5-(hydroxymethyl)pyrrolidine-3,4-diol]
EC50, antiviral activity in MDCK cells: 1.39 µg/mL (≈ 5.24 µM)
